Assay results published in patent publication US5846720A, “Methods of determining chemicals that modulate expression of genes associated with cardiovascular disease” (Oncogene Science, Inc., priority 1996, dated 1998).

How the values were obtained:
[1] = system: hGH promoter; test: hGH promoter/luciferase reporter assay (high-throughput screen I), 532 cells; type: cell-based, rat; details: Table 2, 6 h incubation; for hGH fold induction relative to solvent control: transcriptional activators
Excerpt: 6. a GC rat pituitary cell line, transfected with the growth hormone reporter plasmid, designated 532, deposited under ATCC Accession No. CRL 10663.

[2] = system: MMTV promoter; test: MMTV promoter/luciferase reporter assay (high-throughput screen I, control for specificity), M10 cells; type: cell-based, mouse; details: Table 2, 6 h incubation; for MMTV fold induction relative to solvent control: transcriptional activators, original high-throughput assay
Procedure: pMluci and pSV2Neo, an antibiotic resistance plasmid (84), were co-transfected into NIH/3T3 mouse fibroblast cells using the calcium phosphate precipitation method (85) with a commercially available kit (Pharmacia, Piscataway N.J.). Two days later, cells were transferred to media containing 0.4 mg/ml G418 and were grown for an additional 10-14 days. G418-resistant clones were isolated by standard methods. Once sufficient cell numbers were obtained, clones were analyzed based on several criteria: constitutive luciferase production, induction of luciferase expression by dexamethasone ([…], Sigma, St. Louis, Mo.), satisfactory attachment to microtiter plates used in the high-throughput screen (see section G) and acceptable standard deviation in multiple luciferase expression assays (see below for assay protocol). This analysis was carried out using the luciferase assay conditions described above. Of the clones which satisfied the above criteria for the high throughput screen, one clone, M10, was selected for use.

[3] = system: G-CSF promoter; test: G-CSF promoter/luciferase reporter assay (high-throughput screen I), G21 cells; details: Table 2, 6 h incubation; for GCSF fold induction relative to solvent control: transcriptional activators

SMILES	hGH fold inhibition relative to solvent control ([1]; transcriptional inhibitors)	MMTV fold inhibition relative to solvent control ([2]; transcriptional inhibitors)	GCSF fold inhibition relative to solvent control ([3]; transcriptional inhibitors)	hGH fold induction relative to solvent control [1]	MMTV fold induction relative to solvent control [2]	GCSF fold induction relative to solvent control [3]
NC(=O)c1ccccc1O [Chemical 798]	0.90 fold	0.68 fold	4.76 fold			
Clc1ccc(Sc2cc(Cl)c(Cl)cc2Cl)cc1 [Chemical 828]				1.34 fold	2.20 fold	1.47 fold
N=c1ccc2nc3ccc(N)cc3sc-2c1 [Chemical 836]				0.23 fold	0.58 fold	3.20 fold
CC1(C)O[C@@H]2C[C@H]3[C@@H]4CCC5=CC(=O)C=C[C@]5(C)[C@@]4(F)[C@@H](O)C[C@]3(C)[C@]2(C(=O)CO)O1 [Chemical 848]				1.28 fold	2.43 fold	0.75 fold
CCCCCCCCCCCCCCCC(=O)OCC(COC(=O)CCCCCCCCCCCCCCC)OC(=O)CCCCCCCCCCCCCCC [Chemical 856]				6.49 fold	0.42 fold	0.28 fold
Nc1ccc(C=CC(=O)O)cc1 [Chemical 1234]				0.51 fold	1.03 fold	4.97 fold
Cc1c(C2(c3cc(Br)c(O)c(Br)c3C)OS(=O)(=O)c3ccccc32)cc(Br)c(O)c1Br [Chemical 1251]				15.19 fold	0.33 fold	0.14 fold
Clc1cc(Cl)cc(Br)c1 [Chemical 1255]				0.43 fold	1.09 fold	6.74 fold
Nc1c(Cl)ncnc1Cl [Chemical 1269]				0.91 fold	2.18 fold	0.72 fold
Nc1ccc2c(c1)Cc1ccccc1-2 [Chemical 1316]				1.39 fold	2.33 fold	0.74 fold
Nc1ccc2c(c1)C(=O)c1ccccc1-2 [Chemical 1318]				0.85 fold	2.41 fold	1.13 fold
Nc1ccc(S(=O)(=O)O)c2cccc(O)c12 [Chemical 1337]				15.87 fold	0.23 fold	0.07 fold
NCc1ccc(S(N)(=O)=O)cc1 [Chemical 1375]				0.04 fold	1.37 fold	8.94 fold
Cc1ccc(N)c(S(=O)(=O)O)c1 [Chemical 1376]				0.04 fold	1.32 fold	6.37 fold
Cc1ccc(C(=O)c2ccccc2N)cc1 [Chemical 1384]				0.50 fold	2.43 fold	1.33 fold
Cc1cc(N)sn1 [Chemical 1397]				0.57 fold	1.13 fold	3.63 fold
Nc1ccccc1SSc1ccccc1N [Chemical 1482]				0.54 fold	1.07 fold	3.99 fold
Nc1ccc(SSc2ccc(N)cc2)cc1 [Chemical 1483]				0.38 fold	1.09 fold	4.64 fold
Nc1nc(-c2ccccc2)cs1 [Chemical 1499]				5.55 fold	0.61 fold	0.24 fold
Nc1nc2nc[nH]c2c(=S)[nH]1 [Chemical 1521]				0.73 fold	0.92 fold	3.59 fold
